Data as given in patent US20220259249A1, “INHIBITORS OF ANTIBIOTIC RESISTANCE MEDIATED BY ARNT” (priority 2019, published 2022).
Like-named read-outs stand apart in the source and are kept apart here.

Legend:
[1] = tested on: P. aeruginosa PA14 col^R 5 (colistin-resistant strain); test: microbe, parasite or virus in culture; type: cell-based; details: for IC90: read-out: IC90, synergy with colistin (8 μg/ml)
Description: The compounds identified by in silico screening were tested for their antibacterial activity (in the absence of colistin) and for their synergistic or adjuvant activity with colistin against a colistin-resistant strain of P. aeruginosa grown in the absence or presence of a sub-inhibitory concentration of colistin (8 μg/ml).
This strain over-expresses the am genes responsible for the modification of lipopolysaccharide by the addition of L-amino-arabinose.
The strain was grown in Mueller-Hinton (MH) medium for 8 hours, and inoculated at a cell density of ˜10^6/ml in MH medium supplemented or not with colistin at a concentration of 16 μg/ml. […] The microtitration plates were incubated at 37° C. without stirring for 24 hours. Bacterial growth was assessed by measuring absorbance at 600 nm (A600) in a microplate reader (Victor 2^V, Perkin-Elmer). […] For each compound three independent experiments were conducted, and the averages of the values obtained in the three experiments are considered to determine the values of IC50 e IC90.

[2] = tested on: P. aeruginosa PA14 col^R 5 (colistin-resistant strain); test: Checkerboard assay compound/colistin; type: cell-based
Description: The checkerboard essays were performed in microtiter plates with 96 wells, aliquoting in each column of wells 50 μl of MH medium containing decreasing concentrations of colistin (dilutions in reason of 2 from 384 to 1.5 μg/ml) or without colistin, and in each row of wells further 50 μl of MH medium containing decreasing concentrations of compound of interest (dilutions in reason 2 from […]) or without compound. Finally, 50 μl of the inoculum of the PA14 col^R 5 strain were added to each well at a concentration of ˜1.5×10^6 cells/ml in MH medium, so as to reach a final volume of 150 μl, a bacteria concentration equal to […], colistin concentrations in the range 0-128 μg/ml and concentrations of compounds of interest in the range 0-125 μM. Plates were incubated at 37° C. without shaking for 24 hours, and bacterial growth was assessed by measuring the A600 in a microplate reader (Victor 2^V, Perkin-Elmer). Three independent experiments were conducted for each compound, and the averages of the values obtained in the three experiments were considered to determine the IC90 values.

[3] = tested on: P. aeruginosa strains resistant and sensitive to colistin; test: MIC of colistin in presence of BBN149 or DMSO, P. aeruginosa strains; type: cell-based; details: for MIC of colistin with 0.6% DMSO as a control: colistin without BBN149
Description: (§1) All the colistin-resistant strains used depend on the aminoarabinosylation of lipid A as a mechanism of resistance to colistin (Lo Sciuto e Imperi, 2018; Esposito et al., 2018). […] MIC essays were performed in 96-well microtitration plates, using previously characterized P. aeruginosa and K. pneumoniae strains (Lo Sciuto e Imperi, 2018; Esposito et al., 2018). […] At least three independent experiments were conducted for each strain.

[4] = tested on: colistin-resistant clinical strains of Klebsiella pneumoniae; test: MIC of colistin in presence of BBN149 or DMSO, K. pneumoniae clinical strains; type: cell-based; details: for MIC of colistin with 0.6% DMSO as a control: colistin without BBN149
Description: as §1

[5] = tested on: 16HBE cells (human epithelial cells of bronchial origin); test: Cell viability test (MTT reduction);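 also: formazan absorbance at 570 nm after MTT reduction, corrected for cell-free blank wells, reported relative to untreated cells, from duplicate wells over three independent repeats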
Description: The cytotoxic potential of the compounds was evaluated on cell cultures in vitro. […] The results are reported in the table as viability (%) compared to untreated cells (Table 4).
To evaluate the cytotoxic potential of the compounds under examination, the MTT (3-(4,5-dimethylthiazol-2-yl)-2,5-diphenyltetrazolium) reduction test, commonly used to monitor cell viability was used following the exposure to potentially cytotoxic agents. The essay is based on the reduction of MTT to formazan, a compound that assumes a blue colour which can be evaluated by spectrophotometric reading at a wavelength of 570 nm. For the essay we used the 16HBE cell line. […] Each test was performed in duplicate and three independent replicas were made.
Cell viability was calculated as follows:
COD570=OD570 of sample−OD570 of wells without cells (white)
Viability=100−reduction (%)
where: NT indicates the samples of cells non-threated with the compounds; T the samples of cells treated with the compounds at the different concentrations.
The mean cell viability values were calculated using the Excel mean and standard deviation functions.

[6] = Pseudomonas aeruginosa, PA14, 24 h, read-out: IC50 without colistin
[7] = compound ≥31 μM, MIC 64 to 8 μg/ml, PA14 col^R 5
[8] = 16HBE, 1.95 μM, 18 hours, MTT, vs untreated cells
[9] = 16HBE, 3.91 μM, 18 hours, MTT, vs untreated cells
[10] = 16HBE, 7.81 μM, 18 hours, MTT, vs untreated cells
[11] = 16HBE, 15.63 μM, 18 hours, MTT, vs untreated cells
[12] = 16HBE, 62.5 μM, 18 hours, MTT, vs untreated cells
[13] = 16HBE, 125 μM, 18 hours, MTT, vs untreated cells
[14] = 16HBE, 250 μM, 18 hours, MTT, vs untreated cells
[15] = 16HBE, 31.25 μM, 18 hours, MTT, vs untreated cells

## C[C@]12C=C[C@@]3(CC[C@@H]4[C@@](C)(COC(=O)C(=O)O)CCC[C@@]4(C)[C@@H]3CC1)C2 [BBN149, ent-beyer-15-en-18-O-oxalic acid]
[1]; Pseudomonas aeruginosa, PA14, 24 h, read-out: IC50, synergy with colistin (8 μg/ml)
  IC50: 15.6 µM
[1]; [6]
  IC50: > 250 µM
[1]; Pseudomonas aeruginosa, PA14, 24 h
  IC90: 31.2 µM
[1]; colistin 8 μg/ml
  inhibition of bacterial growth in the presence of colistin: able to inhibit bacterial growth in the presence of colistin
[1]; in the absence of colistin
  antibacterial activity per se: none of the compounds showed antibacterial activity per se
[2]
  reduction of MIC of colistin (times): 4 times
[2]; MIC of colistin 64 to 16 μg/ml, PA14 col^R 5
  concentration of compound reducing MIC of colistin by 4 times: ≥ 16 µM
[2]; [7]
  reduction of MIC of colistin (times): 8 times
[3]; 60 μM BBN149, colistin-sensitive P. aeruginosa strains
  activity on colistin-sensitive strains: no relevant activity
[3]; strain KK1
  MIC of colistin in the presence of 60 μM BBN149: 1 µg/mL
[3]; strain KK1 col^R 1
  MIC of colistin in the presence of 60 μM BBN149: 8 µg/mL
[3]; strain KK27
  MIC of colistin in the presence of 60 μM BBN149: 1 µg/mL
[3]; strain KK27 col^R 6
  MIC of colistin in the presence of 60 μM BBN149: 4 µg/mL
[3]; strain PA14
  MIC of colistin in the presence of 60 μM BBN149: 1 µg/mL
[3]; strain PA14 col^R 5
  MIC of colistin in the presence of 60 μM BBN149: 8 µg/mL
[3]; strain TR1
  MIC of colistin in the presence of 60 μM BBN149: 1 µg/mL
[3]; strain TR1 col^R 6
  MIC of colistin in the presence of 60 μM BBN149: 4 µg/mL
[4]; strain KP-Mo-3
  MIC of colistin in the presence of 60 μM BBN149: 16 µg/mL
[4]; strain KP-Mo-5
  MIC of colistin in the presence of 60 μM BBN149: 8 µg/mL
[4]; strain KP-Mo-6
  MIC of colistin in the presence of 60 μM BBN149: 4 µg/mL
[4]; strain KP-Mo-11
  MIC of colistin in the presence of 60 μM BBN149: 8 µg/mL
[4]; strain KP-Mo-16
  MIC of colistin in the presence of 60 μM BBN149: 8 µg/mL
[5]
  Average percentage of cell viability (±standard deviation): 86.07 ± 5.30%
[5]; [8]
  Average percentage of cell viability (±standard deviation): 94.15 ± 6.34%
[5]; [9]
  Average percentage of cell viability (±standard deviation): 90.17 ± 7.35%
[5]; [10]
  Average percentage of cell viability (±standard deviation): 86.13 ± 2.37%
[5]; [11]
  Average percentage of cell viability (±standard deviation): 90.80 ± 6.31%
[5]; [12]
  Average percentage of cell viability (±standard deviation): 76.33 ± 2.65%
[5]; [13]
  Average percentage of cell viability (±standard deviation): 71.99 ± 5.18%
[5]; [14]
  Average percentage of cell viability (±standard deviation): 65.51 ± 4.05%

## C[C@@]12CCC3[C@@](CCC4[C@@](C)(COC(=O)C(=O)O)CCC[C@]43C)(CC1)C2 (stereo partly drawn) [FDO-H, ent-beyeran-18-O-oxalic acid]
[1]; [6]
  IC50: < 250 µM
[1]; read-out: IC50, synergy with colistin (8 μg/ml), PA14 ColR5, colistin 8 μg/ml (sub-inhibitory), minimum concentration causing at least 50% growth inhibition, 24 h
  IC50: 7.81 µM
[2]
  concentration of compound reducing MIC of colistin by 4 times: ≥ 4 µM
[2]; compound ≥4 μM, PA14 col^R 5
  reduction of MIC of colistin (times): 4 times
[2]; [7]
  reduction of MIC of colistin (times): 8 times
[5]; [8]
  Average percentage of cell viability (±standard deviation): 106.31 ± 17.23%
[5]; [9]
  Average percentage of cell viability (±standard deviation): 94.57 ± 12.67%
[5]; [10]
  Average percentage of cell viability (±standard deviation): 100.25 ± 23.84%
[5]; [11]
  Average percentage of cell viability (±standard deviation): 94.06 ± 3.88%
[5]; [15]
  Average percentage of cell viability (±standard deviation): 93.65 ± 11.27%
[5]; [12]
  Average percentage of cell viability (±standard deviation): 97.14 ± 12.19%
[5]; [13]
  Average percentage of cell viability (±standard deviation): 98.42 ± 16.71%
[5]; [14]
  Average percentage of cell viability (±standard deviation): 76.51 ± 12.64%

## C[C@@]12CCC3[C@@](CCC4[C@@]3(C)CCC[C@@]4(C)C(=O)OC3OC(CO)C(O)C(O)C3O)(CC1)C2 (stereo partly drawn) [SR4, glucopyranosyl β-D ester of ent-beyeran-19-oic acid]
[1]; [6]
  IC50: > 250 µM
[1]; PA14 ColR5, colistin 8 μg/ml (sub-inhibitory), minimum concentration causing at least 90% growth inhibition, 24 h
  IC90: > 250 µM
[2]
  concentration of compound reducing MIC of colistin by 4 times: 125 µM
[2]; compound 125 μM only, PA14 col^R 5
  reduction of MIC of colistin (times): 4 times
other
  melting point: 160 °C
[5]; [8]
  Average percentage of cell viability (±standard deviation): 96.35 ± 9.42%
[5]; [9]
  Average percentage of cell viability (±standard deviation): 92.31 ± 3.26%
[5]; [10]
  Average percentage of cell viability (±standard deviation): 92.44 ± 2.11%
[5]; [11]
  Average percentage of cell viability (±standard deviation): 97.27 ± 5.61%
[5]; [15]
  Average percentage of cell viability (±standard deviation): 101.69 ± 4.39%
[5]; [12]
  Average percentage of cell viability (±standard deviation): 99.27 ± 2.43%
[5]; [13]
  Average percentage of cell viability (±standard deviation): 106.23 ± 5.52%
[5]; [14]
  Average percentage of cell viability (±standard deviation): −1.11 ± 2.02%
[5]; 16HBE, highest concentration (250 μM), 18 hours
  reduction in cell viability: total reduction of cell viability

## colistin [reference compound]
[3]; strain KK1
  MIC of colistin with 0.6% DMSO as a control: 0.5 µg/mL
[3]; strain KK1 col^R 1
  MIC of colistin with 0.6% DMSO as a control: 128 µg/mL
[3]; strain KK27
  MIC of colistin with 0.6% DMSO as a control: 0.5 µg/mL
[3]; strain KK27 col^R 6
  MIC of colistin with 0.6% DMSO as a control: 64 µg/mL
[3]; strain PA14
  MIC of colistin with 0.6% DMSO as a control: 0.5 µg/mL
[3]; strain PA14 col^R 5
  MIC of colistin with 0.6% DMSO as a control: 64 µg/mL
[3]; strain TR1
  MIC of colistin with 0.6% DMSO as a control: 0.5 µg/mL
[3]; strain TR1 col^R 6
  MIC of colistin with 0.6% DMSO as a control: 16 µg/mL
[4]; strain KP-Mo-3
  MIC of colistin with 0.6% DMSO as a control: 128 µg/mL
[4]; strain KP-Mo-5
  MIC of colistin with 0.6% DMSO as a control: 128 µg/mL
[4]; strain KP-Mo-6
  MIC of colistin with 0.6% DMSO as a control: 32 µg/mL
[4]; strain KP-Mo-11
  MIC of colistin with 0.6% DMSO as a control: 64 µg/mL
[4]; strain KP-Mo-16
  MIC of colistin with 0.6% DMSO as a control: 64 µg/mL
